Reference: patent publication US10202371B2, “Oxazolidin-2-one-pyrimidine derivatives and the use thereof as phosphatidylinositol-3-kinase inhibitors” (Novartis AG, priority 2012, dated 2019)

Tests used:
PI3Kgamma = PI3Kgamma (Homo sapiens (Human), UniProt P48736); assay: Biochemical assay PI3Kgamma (Adapta TR-FRET); settings: read-out: PI3Kg/IC50
Source text: The TR-FRET Adapta™ Universal Kinase Assay Kit was purchased from Invitrogen
Corporation (Carlsbad/CA, USA) (Cat. No. PV5099). The kit contains the following reagents: Adapta Eu-anti-ADP Antibody (Europium labeled anti-ADP antibody in HEPES buffered saline, Cat. No. PV5097), Alexa Fluor® 647-labeled ADP tracer (Alexa Fluor® 647-labeled ADP tracer in HEPES buffered saline, Cat. No. PV5098), proprietary TR-FRET dilution buffer pH 7.5 (Cat. No. PV3574).
PIK3CD substrate Phosphatidylinositol was obtained from Invitrogen (vesicules consisting of 2 mM PI in 50 mM HEPES pH7.5; Cat. No. PV5371).
Time-Resolved Fluorescence Resonance Energy Transfer (TR-FRET) is a technology based on energy transfer between two adjacent dyes, from an excited electron in one dye (the donor) to an electron of an adjacent dye (the acceptor) through resonance, then released as a photon. This energy transfer is detected by an increase in the fluorescence emission of the acceptor, and a decrease in the fluorescence emission of the donor. TR-FRET assays for protein kinases use a long-lifetime lanthanide Terbium or Europium chelates as the donor species which overcome interference from compound autofluorescence or light scatter from precipitated compounds, by introducing a delay after excitation by a flashlamp excitation source. Results are often expressed as a ratio of the intensities of the acceptor and donor fluorophores. The ratiometric nature of such a value corrects for differences in assay volumes between wells, as well as corrects for quenching effects due to colored compounds. The Adapta™ assay can be divided into two phases: a kinase reaction phase and an ADP detection phase. In the kinase reaction phase, all kinase reaction components are added to the well and the reaction is allowed to incubate for a set period of time specific for each kinase. After the reaction, a detection solution of Eu-labeled anti-ADP antibody, Alexa Fluor® 647-labeled ADP tracer, and EDTA (to stop the kinase reaction) are added to the assay well. ADP formed by the kinase reaction will displace the Alexa Fluor® 647-labeled ADP tracer from the antibody, resulting in a decrease in TR-FRET signal. In the presence of an inhibitor, the amount of ADP formed by the kinase reaction is reduced, and the resulting intact antibody-tracer interaction maintains a high TR-FRET signal. In the Adapta™ assay, the donor (Europium-anti-ADP antibody) is excited at 340 nm and will transfer its energy to the acceptor (Alexa Fluor® 647-labeled ADP tracer). The emission from the Alexa Fluor® 647 can be monitored with a filter centered at 665 nm because it is located between the emission peaks of the donor, which is measured at 615/620 nm.
50 nL of compound dilutions were dispensed onto white 384-well small volume polystyrene plate as described in section 2.2. Then 5 μL of PI3Kg and PI3Kd and lipid substrate (PI or PIP2:PS) followed by 5 μL of ATP (final assay volume 10 μL) are incubated at RT. The standard reaction buffer for the Adapta™ TR-FRET assay contained 10 mM Tris-HCl pH 7.5, 3 mM MgCl2, 50 mM NaCl, 1 mM DTT, 0.05% CHAPS. Reactions were stopped with 5 μL of a mixture of EDTA containing the Eu-labeled anti-ADP antibody and the Alexa Fluor® 647-labeled ADP tracer in TR-FRET dilution buffer (proprietary to IVG). Plates are read 15 to 60 mins later in a Synergy2 reader using an integration time of 0.4 seconds and a delay of 0.05 seconds. […] The standard compound NVP-BGT226 was used as a reference compound and included in all assay plates in the form of 16 dilution points in duplicate.
Data are analyzed using Excel fit software or Graphpad Prism. EC50 values were derived by fitting a sigmoidal dose-response curve to a plot of assay readout over inhibitor concentration. All fits were performed with the program XLfit4 (ID Business Solutions, Guildford, UK). […] All fits were performed with the program XLfit4 (ID Business Solutions, Guildford, UK).

[1] = Photostability in light stability chamber; type: physicochemical; settings: 1.0 mg/ml in ethanol, 19620 kJ/m^2 over 13 h, 15° C., UPLC 254 nm
Procedure: Samples investigated for light stability were treated in a light stability chamber (Atlas CPS+, Serial Number 0704013). Solutions of 1.0 mg/ml in ethanol were prepared for each molecule and aliquots of 0.5 mL were dispensed into suitable micro tubes. All measurements were done in duplicate and compared to a reference wrapped in aluminium foil during light exposure. Solutions were exposed to 19620 kJ/m^2 over 13 h. Samples were kept at 15° C. during the experiment. […] The peak areas were automatically integrated, and the degradation percentage calculated as the difference between the corresponding peak area percentage of the reference sample and the average peak area percentage of the exposed samples (duplicate).

human mTOR (GST-mTOR) = human mTOR (GST-mTOR) (Homo sapiens (Human), UniProt P42345); assay: Binding assay mTor (Lanthascreen kinase binding assay); settings: Tracer-314
Source text: Catalytically active human PI3Kα, PI3Kβ, PI3Kδ, and mTOR were cloned, expressed and purtified as described (Maira S M, Stauffer F, Brueggen J, Furet P, Schnell C, Fritsch C, Brachmann S, Chène P, de Pover A, Schoemaker K, Fabbro D, Gabriel D, Simonen M, Murphy L, Finan P, Sellers W, Garcia-Echeverria C (2008), Mol Cancer Ther. 7:1851-63 and Maira S M, Pecchi S, Brueggen J, Huh K, Schnell C, Fritsch C, Nagel T, Wiesmann M, Brachmann S, Dorsch M, Chène P, Schoemaker K, De Pover A, Menezes D, Fabbro D, Sellers W, Garcia-Echeverria C, Voliva CF (2011), Mol. Cancer Ther. accepted).
TR-FRET assays for protein kinases uses a long-lifetime lanthanide Terbium or Europium chelates as the donor species which overcome interference by compound autofluorescence or light scatter from precipitated compounds, by introducing a delay after excitation by a flashlamp excitation source. Results are often expressed as a ratio of the intensities of the acceptor and donor fluorophores. The ratiometric nature of such a value corrects for differences in assay volumes between wells, as well as corrects for quenching effects due to colored compounds.
Binding Assays are based on the binding and displacement of an Alexa Fluor® 647-labeled, ATP-competitive kinase inhibitors to the kinase of interest. Invitrogen's “Kinase Tracers” have been developed to address a wide range of kinase targets and are based on ATP-competitive kinase inhibitors, making them suitable for detection of any compounds that bind to the ATP site or to an allosteric site altering the conformation of the ATP site. Inhibitors that bind the ATP site include both Type I kinase inhibitors, which bind solely to the ATP site, and Type II inhibitors (e.g., Gleevec®/Imatinib, Sorafenib, BIRB-796), which bind to both the ATP site and a hydrophobic site exposed in the DFG-out (non-active) conformation. […] The sole exception was a substrate-competitive compound, and thus not a true allosteric inhibitor.
In contrast to most fluorescence-based kinase activity assays, LanthaScreen® Eu^3+ Kinase Binding Assays can be read continuously, which facilitates evaluation of compounds with slow binding kinetics. Also, unlike most activity assays, binding assays can be performed using either active or non-activated kinase preparations, which enables characterization of compounds that bind preferentially to non-activated kinases, such as Gleevec®/imatinib and some allosteric inhibitors.
In the Lanthascreen™ kinase binding assay, the donor (Eu^3+-anti-GST antibody) is excited at 340 nm and will transfer its energy to the acceptor (Alexa Fluor® 647-labeled ATP-competitive kinase inhibitor=Tracer-314). The emission from the Tracer-314 (Alexa Fluor® 647 inhibitor) can be monitored with a filter centered at 665 nm because it is located between the emission peaks of the donor, which is measured at 615/620 nm. The binding of both, the Tracer-314 and Eu^3+-anti-GST antibody, to the kinase results in a high degree of FRET from the Eu^3+-donor fluorophore to the Alexa-Fluor® 647-acceptor fluorophore on the Tracer-314. Binding of an inhibitor to the kinase competes for binding with the tracer, resulting in a loss of FRET.
50 nL of compound dilutions were dispensed onto white 384-well small volume polystyrene plate as described in section 2.2. Then 5 μL of GST-mTOR and Europium-anti-GST antibody followed by 5 μL of tracer-314 (final assay volume 10 μL) are incubated at RT. The standard reaction buffer for the Lanthascreen™ kinase binding assay contained 50 mM HEPES pH 7.5, 5 mM MgCl2, 1 mM EGTA, 0.01% Pluronic F-127. Plates are read 60 mins later in a Synergy2 reader using an integration time of 0.2 microseconds and a delay of 0.1 microseconds.
To calculate the emission ratio, the signal emitted at 665 nm from the acceptor (Alexa Fluor® 647-labeled Tracer-314) is divided by the signal emitted at 620 nm from the donor (Eu^3+ anti-GST antibody) […]

Sequence of PI3Kgamma (P48736 whole entry, species assumed): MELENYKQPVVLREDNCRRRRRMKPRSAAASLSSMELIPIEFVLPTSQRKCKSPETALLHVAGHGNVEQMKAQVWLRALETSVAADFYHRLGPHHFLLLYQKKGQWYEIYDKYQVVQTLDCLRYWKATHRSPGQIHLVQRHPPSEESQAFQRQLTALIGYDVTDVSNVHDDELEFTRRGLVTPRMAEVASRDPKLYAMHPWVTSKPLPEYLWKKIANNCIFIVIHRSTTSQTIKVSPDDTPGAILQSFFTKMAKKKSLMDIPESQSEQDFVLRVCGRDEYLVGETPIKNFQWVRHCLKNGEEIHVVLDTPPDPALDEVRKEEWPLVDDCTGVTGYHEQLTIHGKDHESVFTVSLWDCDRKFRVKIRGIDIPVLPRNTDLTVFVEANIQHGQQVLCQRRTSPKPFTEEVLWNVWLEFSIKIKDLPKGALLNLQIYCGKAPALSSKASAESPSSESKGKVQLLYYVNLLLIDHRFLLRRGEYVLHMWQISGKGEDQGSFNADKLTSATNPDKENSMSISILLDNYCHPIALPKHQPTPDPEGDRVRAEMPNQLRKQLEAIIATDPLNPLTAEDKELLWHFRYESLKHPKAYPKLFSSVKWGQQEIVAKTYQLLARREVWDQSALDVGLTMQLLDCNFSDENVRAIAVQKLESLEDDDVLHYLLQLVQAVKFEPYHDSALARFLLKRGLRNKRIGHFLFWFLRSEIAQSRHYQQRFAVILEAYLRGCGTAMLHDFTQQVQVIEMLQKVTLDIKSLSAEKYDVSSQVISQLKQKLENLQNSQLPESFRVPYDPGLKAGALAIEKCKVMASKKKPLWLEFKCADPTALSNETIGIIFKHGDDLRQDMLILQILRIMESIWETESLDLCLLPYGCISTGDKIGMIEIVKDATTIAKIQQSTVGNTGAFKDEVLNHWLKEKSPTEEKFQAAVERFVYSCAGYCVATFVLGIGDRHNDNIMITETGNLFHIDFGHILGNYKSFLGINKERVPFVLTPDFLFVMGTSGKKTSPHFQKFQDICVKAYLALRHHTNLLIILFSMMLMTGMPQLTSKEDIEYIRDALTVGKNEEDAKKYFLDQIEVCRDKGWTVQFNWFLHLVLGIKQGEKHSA

| SMILES | IC50 (PI3Kgamma) [µM] | % degradation in photostability assay (average) [1] [%] | IC50 (human mTOR (GST-mTOR)) [µM] |
| --- | --- | --- | --- |
| CC[C@H]1[C@@H](c2ccccc2)OC(=O)N1c1cc(-c2cnc(N)nc2C(F)(F)F)nc(N2CCOCC2)n1 [Example 4] | 4.5 | – | – |
| CC[C@H]1[C@H](c2cccc(OC)c2)OC(=O)N1c1cc(-c2cnc(N)nc2C(F)(F)F)nc(N2CCOCC2)n1 [Example 6] | 7 | 0 | 4.7 |
